Test results taken from ChEMBL document CHEMBL3045223, “Synthesis, nematicidal and antimicrobial properties of Bis-[4-methoxy-3-[3-(4-fluorophenyl)-6-(4-methylphenyl)-2(aryl)-tetrahydro-2H-pyrazolo[3,4-d]thiazol-5-yl]phenyl]methanes” (2009).
In brackets after ≈: the same amount, converted by molar mass. Activity calls are given as the source filed them. No cut-off for these calls is given here.

What was measured:
Assay type in all cases: functional
[1] = tested on: Lysinibacillus sphaericus; assay: Antibacterial activity against Lysinibacillus sphaericus MTCC 11 assessed as inhibition zones at 300 ug/disk at 37 degC for 24 hr; conditions: MTCC 11, 24 h, read-out: IZ
Klebsiella aerogenes [2] = assay: Antibacterial activity against Enterobacter aerogenes MTCC 39 assessed as growth arrest at 37 degC for 24 hr; conditions: MTCC 39, 24 h
[3] = tested on: Chromobacterium violaceum; assay: Antibacterial activity against Chromobacterium violaceum MTCC 2656 assessed as growth arrest at 37 degC for 24 hr; conditions: MTCC 2656, 24 h
[4] = tested on: Ditylenchus myceliophagus; assay: Nematicidal activity against Ditylenchus myceliophagus assessed as immobility; conditions: read-out: LD50 (the source's name)
[5] = tested on: Lysinibacillus sphaericus; assay: Antibacterial activity against Lysinibacillus sphaericus MTCC 11 assessed as growth arrest at 37 degC for 24 hr; conditions: MTCC 11, 24 h
Candida albicans [6] = assay: Antifungal activity against Candida albicans ATCC 10231 assessed as growth inhibition at 300 ug/disk at 37 degC for 48 hr; conditions: for zone of inhibition at 300 µg/disc: ATCC 10231, 48 h, read-out: IZ
Trichophyton rubrum [7] = assay: Antifungal activity against Trichophyton rubrum IFO 9185 assessed as growth inhibition at 37 degC for 48 hr
Bacillus subtilis [8] = assay: Antibacterial activity against Bacillus subtilis MTCC 441 assessed as growth arrest at 37 degC for 24 hr; conditions: MTCC 441, 24 h
[9] = tested on: Trichophyton mentagrophytes; assay: Antifungal activity against Trichophyton mentagrophytes IFO 40996 assessed as growth inhibition at 300 ug/disc at 37 degC for 48 hr; conditions: for zone of inhibition at 300 µg/disc: IFO 40996, 48 h, read-out: IZ
Candida albicans [10] = assay: Antifungal activity against Candida albicans ATCC 10231 assessed as growth inhibition at 37 degC for 48 hr
Trichophyton rubrum [11] = assay: Antifungal activity against Trichophyton rubrum IFO 9185 assessed as growth inhibition at 300 ug/disk at 37 degC for 48 hr; conditions: for zone of inhibition at 300 µg/disc: IFO 9185, 48 h, read-out: IZ
Pseudomonas aeruginosa [12] = assay: Antibacterial activity against Pseudomonas aeruginosa MTCC 741 assessed as inhibition zones at 300 ug/disk at 37 degC for 24 hr; conditions: MTCC 741, 24 h, read-out: IZ
Staphylococcus aureus [13] = assay: Antibacterial activity against Staphylococcus aureus MTCC 96 assessed as inhibition zones at 300 ug/disc at 37 degC for 24 hr; conditions: MTCC 96, 24 h, read-out: IZ
Pseudomonas aeruginosa [14] = assay: Antibacterial activity against Pseudomonas aeruginosa MTCC 741 assessed as growth arrest at 37 degC for 24 hr; conditions: MTCC 741, 24 h
[15] = tested on: Trichophyton mentagrophytes; assay: Antifungal activity against Trichophyton mentagrophytes IFO 40996 assessed as growth inhibition at 37 degC for 48 hr
Staphylococcus aureus [16] = assay: Antibacterial activity against Staphylococcus aureus MTCC 96 assessed as growth arrest at 37 degC for 24 hr; conditions: MTCC 96, 24 h
[17] = tested on: Chromobacterium violaceum; assay: Antibacterial activity against Chromobacterium violaceum MTCC 2656 assessed as inhibition zones at 300 ug/disk at 37 degC for 24 hr; conditions: MTCC 2656, 24 h, read-out: IZ
Klebsiella aerogenes [18] = assay: Antibacterial activity against Enterobacter aerogenes MTCC 39 assessed as inhibition zones at 300 ug/disk at 37 degC for 24 hr; conditions: MTCC 39, 24 h, read-out: IZ
Aspergillus fumigatus [19] = assay: Antifungal activity against Aspergillus fumigatus HIC 6094 assessed as growth inhibition at 300 ug/disc at 37 degC for 48 hr; conditions: for zone of inhibition at 300 µg/disc: HIC 6094, 48 h, read-out: IZ
Caenorhabditis elegans = assay: Nematicidal activity against Caenorhabditis elegans assessed as immobility; conditions: read-out: LD50 (the source's name)
Aspergillus fumigatus [20] = assay: Antifungal activity against Aspergillus fumigatus HIC 6094 assessed as growth inhibition at 37 degC for 48 hr
Bacillus subtilis [21] = assay: Antibacterial activity against Bacillus subtilis MTCC 441 assessed as inhibition zones at 300 ug/disk at 37 degC for 24 hr; conditions: MTCC 441, 24 h, read-out: IZ

Row | Compound | zone of inhibition at 300 µg/disc [1] | MBC (Klebsiella aerogenes [2]) | MIC (Klebsiella aerogenes [2]) | MBC [3] | MIC [3] | LC50 [4] | MBC [5] | MIC [5] | MBC (Bacillus subtilis [8]) | MIC (Bacillus subtilis [8]) | zone of inhibition at 300 µg/disc (Pseudomonas aeruginosa [12]) | zone of inhibition at 300 µg/disc (Staphylococcus aureus [13]) | MBC (Pseudomonas aeruginosa [14]) | MIC (Pseudomonas aeruginosa [14]) | MBC (Staphylococcus aureus [16]) | MIC (Staphylococcus aureus [16]) | zone of inhibition at 300 µg/disc [17] | zone of inhibition at 300 µg/disc (Klebsiella aerogenes [18]) | LC50 (Caenorhabditis elegans) | zone of inhibition at 300 µg/disc (Bacillus subtilis [21]) | also measured
1 | COc1ccc(Cc2ccc(OC)c(C3SC4C(=NN(C(C)C)C4c4ccc(F)cc4)N3c3ccc([N+](=O)[O-])cc3)c2)cc1C1SC2C(=NN(C(C)C)C2c2ccc(F)cc2)N1c1ccc([N+](=O)[O-])cc1 (stereo not drawn) | 13 mm | 25 µg/mL (≈ 25.1 µM) | 12.5 µg/mL (≈ 12.5 µM) | 50 µg/mL (≈ 50.1 µM) | 25 µg/mL (≈ 25.1 µM) | 510 µg/mL (≈ 511 µM) | 50 µg/mL (≈ 50.1 µM) | 50 µg/mL (≈ 50.1 µM) | 25 µg/mL (≈ 25.1 µM) | 25 µg/mL (≈ 25.1 µM) | 10 mm | 23 mm | 25 µg/mL (≈ 25.1 µM) | 25 µg/mL (≈ 25.1 µM) | 50 µg/mL (≈ 50.1 µM) | 25 µg/mL (≈ 25.1 µM) | 15 mm | 17 mm | 600 µg/mL (≈ 602 µM) | 18 mm | inhibition zone (IZ) (Candida albicans [6]): inactive; MBC (Trichophyton rubrum [7]; IFO 9185, 48 h): 25 µg/mL (≈ 25.1 µM); MIC (Trichophyton rubrum [7]; IFO 9185, 48 h): 12.5 µg/mL (≈ 12.5 µM); inhibition zone (IZ) [9]: inactive; MBC (Candida albicans [10]; ATCC 10231, 48 h): 25 µg/mL (≈ 25.1 µM); MIC (Candida albicans [10]; ATCC 10231, 48 h): 25 µg/mL (≈ 25.1 µM); zone of inhibition at 300 µg/disc (Trichophyton rubrum [11]): 9 mm; MBC ([15]; IFO 40996, 48 h): 25 µg/mL (≈ 25.1 µM); MIC ([15]; IFO 40996, 48 h): 12.5 µg/mL (≈ 12.5 µM); inhibition zone (IZ) (Aspergillus fumigatus [19]): inactive; MBC (Aspergillus fumigatus [20]; HIC 6094, 48 h): 50 µg/mL (≈ 50.1 µM); MIC (Aspergillus fumigatus [20]; HIC 6094, 48 h): 25 µg/mL (≈ 25.1 µM)
2 | CNC(=O)O/N=C(\SC)C(=O)N(C)C [OXAMYL] | – | – | – | – | – | 150 µg/mL (≈ 684 µM) | – | – | – | – | – | – | – | – | – | – | – | – | 180 µg/mL (≈ 821 µM) | – | –
3 | COc1ccc(Cc2ccc(OC)c(C3SC4C(=NN(Cc5ccccc5)C4c4ccc(F)cc4)N3c3ccc([N+](=O)[O-])cc3)c2)cc1C1SC2C(=NN(Cc3ccccc3)C2c2ccc(F)cc2)N1c1ccc([N+](=O)[O-])cc1 (stereo not drawn) | 21 mm | 25 µg/mL (≈ 22.9 µM) | 12.5 µg/mL (≈ 11.4 µM) | 12.5 µg/mL (≈ 11.4 µM) | 6.25 µg/mL (≈ 5.72 µM) | 190 µg/mL (≈ 174 µM) | 50 µg/mL (≈ 45.7 µM) | 12.5 µg/mL (≈ 11.4 µM) | 12.5 µg/mL (≈ 11.4 µM) | 6.25 µg/mL (≈ 5.72 µM) | 10 mm | 19 mm | 50 µg/mL (≈ 45.7 µM) | 12.5 µg/mL (≈ 11.4 µM) | 50 µg/mL (≈ 45.7 µM) | 12.5 µg/mL (≈ 11.4 µM) | 13 mm | 19 mm | 190 µg/mL (≈ 174 µM) | 15 mm | zone of inhibition at 300 µg/disc (Candida albicans [6]): 19 mm; MBC (Trichophyton rubrum [7]): inactive; MIC (Trichophyton rubrum [7]): inactive; zone of inhibition at 300 µg/disc [9]: 13 mm; MBC (Candida albicans [10]; ATCC 10231, 48 h): 25 µg/mL (≈ 22.9 µM); MIC (Candida albicans [10]; ATCC 10231, 48 h): 12.5 µg/mL (≈ 11.4 µM); zone of inhibition at 300 µg/disc (Trichophyton rubrum [11]): 11 mm; MBC [15]: inactive; MIC [15]: inactive; zone of inhibition at 300 µg/disc (Aspergillus fumigatus [19]): 16 mm; MBC (Aspergillus fumigatus [20]): inactive; MIC (Aspergillus fumigatus [20]): inactive
4 | COc1ccc(Cc2ccc(OC)c(C3SC4C(=NN(c5ccccc5)C4c4ccc(F)cc4)N3c3ccc(C)cc3)c2)cc1C1SC2C(=NN(c3ccccc3)C2c2ccc(F)cc2)N1c1ccc(C)cc1 (stereo not drawn) | 16 mm | 25 µg/mL (≈ 24.9 µM) | 12.5 µg/mL (≈ 12.5 µM) | 25 µg/mL (≈ 24.9 µM) | 25 µg/mL (≈ 24.9 µM) | 850 µg/mL (≈ 847 µM) | 50 µg/mL (≈ 49.8 µM) | 25 µg/mL (≈ 24.9 µM) | 25 µg/mL (≈ 24.9 µM) | 12.5 µg/mL (≈ 12.5 µM) | 18 mm | 27 mm | 50 µg/mL (≈ 49.8 µM) | 12.5 µg/mL (≈ 12.5 µM) | 12.5 µg/mL (≈ 12.5 µM) | 12.5 µg/mL (≈ 12.5 µM) | 19 mm | 17 mm | 670 µg/mL (≈ 668 µM) | 14 mm | zone of inhibition at 300 µg/disc (Candida albicans [6]): 11 mm; MBC (Trichophyton rubrum [7]; IFO 9185, 48 h): 50 µg/mL (≈ 49.8 µM); MIC (Trichophyton rubrum [7]; IFO 9185, 48 h): 25 µg/mL (≈ 24.9 µM); zone of inhibition at 300 µg/disc [9]: 9 mm; MBC (Candida albicans [10]): inactive; MIC (Candida albicans [10]): inactive; inhibition zone (IZ) (Trichophyton rubrum [11]): inactive; MBC ([15]; IFO 40996, 48 h): 25 µg/mL (≈ 24.9 µM); MIC ([15]; IFO 40996, 48 h): 25 µg/mL (≈ 24.9 µM); zone of inhibition at 300 µg/disc (Aspergillus fumigatus [19]): 10 mm; MBC (Aspergillus fumigatus [20]; HIC 6094, 48 h): 25 µg/mL (≈ 24.9 µM); MIC (Aspergillus fumigatus [20]; HIC 6094, 48 h): 25 µg/mL (≈ 24.9 µM)
